# Data: US10471043B2, “Compounds and methods of treating bacterial infections” (ULTUPHARMA AB, priority 2015, dated 2019)
# Where two headings read alike, the source gives them in different places.
# Key:
# [1] = tested on: Staphylococcus aureus strain LMG15975; assay: MIC by broth micro-dilution, AM3/PBS 1:1; type: cell-based
# Procedure: (§1) At first (Table 1), MIC is determined by broth micro-dilution method. The test medium is Antibiotic Medium 3 (AM3; Difco Ltd) mixed with Phosphate Buffered Saline (PBS) in proportions 1:1. Selected MIC values are verified using cation-adjusted Mueller Hinton Broth (MHB; BD). Cell concentration of tested pathogen is adjusted to between 3 and 5×10^5 cells per ml. To verify cell concentration of tested pathogen, viable cell counts are performed directly after each MIC-test by dilution method with PBS as a dilution solvent. Cells are counted on the agar plates with 50% strength Vegetable Peptone Broth (50% VPB; Oxoid Ltd) after 16 to 20 h of incubation at 37° C.
# (§2) Cells of pathogen suspended in test medium are distributed to the wells and the plates are incubated for 16 to 20 h at 37° C. Negative controls are wells with the test medium only and positive controls are wells with the pathogen in test medium. The MIC is defined as the lowest concentration of each compound with no visible growth of pathogen.
# Example compounds of formula I were examined for antibacterial activity against the Gram-positive bacterium Staphylococcus aureus strain LMG15975 using the above described method (Table 1).
# Bacillus cereus = assay: MIC by broth micro-dilution; type: cell-based; details: Table 4, read-out: MIC (μg/ml) B. cereus
# Procedure: as §1, §2
# M. frederiksbergense = assay: MIC by broth micro-dilution; type: cell-based; details: Table 4; read-out: MIC (μg/ml) M. frederiksbergense
# Procedure: as §1, §2
# Mycobacterium smegmatis = assay: MIC by broth micro-dilution; type: cell-based; details: Mycolicibacterium smegmatis; Table 4; read-out: MIC (μg/ml) M. smegmatis
# Procedure: as §1, §2
# A. baumannii = assay: MIC by broth micro-dilution; type: cell-based; details: Acinetobacter baumannii, A. baumannii (G−), Table 2; read-out: MIC (μg/ml) A. baumannii
# Procedure: as §1, §2
# [2] = tested on: mupirocin-resistant strains of Staphylococcus aureus; assay: MIC against mupirocin-resistant strains; type: cell-based
# Procedure: as §1, §2
# [3] = Cytotoxicity assay, WST-8; details: human, HepG2 cells, CC50 (μg/mL)
# S. aureus = assay: Antimicrobial Susceptibility Test by Broth Microdilution, M07-A9 CLSI; type: cell-based; details: Staphylococcus aureus
# Serratia marescens = assay: MIC panel of Gram-negative bacteria (Table 7); type: cell-based; details: EN0454 Serratia marescens G− PKL 3692
# E. faecium = assay: Antimicrobial Susceptibility Test by Broth Microdilution, M07-A9 CLSI; type: cell-based; details: Enterococcus faecium; E. faecium 7, Vancomycin-resistant, Table 5; read-out: MIC
# Proteus mirabilis = assay: MIC panel of Gram-negative bacteria (Table 7); type: cell-based
# A. Pittii/nosocomialis = assay: MIC panel of Gram-negative bacteria (Table 7); type: cell-based; details: Acinetobacter pittii; EN0180 A. Pittii/nosocomialis G−
# S. epidermidis [4] = assay: Antimicrobial Susceptibility Test by Broth Microdilution, M07-A9 CLSI; type: cell-based; details: Staphylococcus epidermidis
# S. typhimurium = assay: MIC panel of Gram-negative bacteria (Table 7); type: cell-based; details: Salmonella enterica; EN0466 S. typhimurium G− TH6509
# P. aeruginosa = assay: MIC panel of Gram-negative bacteria (Table 7); type: cell-based; details: Pseudomonas aeruginosa
# K. pneumoniae = assay: MIC panel of Gram-negative bacteria (Table 7); type: cell-based; details: Klebsiella pneumoniae
# Citrobacter sp. = assay: MIC panel of Gram-negative bacteria (Table 7); type: cell-based; details: EN0465 Citrobacter sp. G− PKL 3710
# E. faecalis = assay: Antimicrobial Susceptibility Test by Broth Microdilution, M07-A9 CLSI; type: cell-based; details: Enterococcus faecalis
# S. epidermidis [5] = assay: MIC panel of Gram-negative bacteria (Table 7); type: cell-based; details: Staphylococcus epidermidis; EN0456 S. epidermidis G+ PKL 3694
# Enterobacter aerogenes = assay: MIC panel of Gram-negative bacteria (Table 7); type: cell-based; details: Klebsiella aerogenes; EN0461 Enterobacter aerogenes G− PKL 3706
# Micrococcus luteus = assay: MIC panel of Gram-negative bacteria (Table 7); type: cell-based; details: EN0455 Micrococcus luteus G+ PKL 3693
# E. coli = assay: MIC panel of Gram-negative bacteria (Table 7); type: cell-based; details: Escherichia coli
# K. oxytoca = assay: MIC panel of Gram-negative bacteria (Table 7); type: cell-based; details: Klebsiella oxytoca; EN0392 K. oxytoca G−
# A. baumanii = assay: MIC panel of Gram-negative bacteria (Table 7); type: cell-based
# Dutch Elm disease fungus = details: Ayer & Villar 1985; cited from earlier work
# Pyricularia oryziae = details: Miyakado et al 1982; cited from earlier work
# [6] = LMG15975, S. aureus LMG15975, Table 1, read-out: MIC
# [7] = LMG15975, S. aureus LMG15975, Table 1, read-out: MIC (μg/ml)
# [8] = LMG15975, Table 4, read-out: MIC (μg/ml) S. aureus
# [9] = S. aureus V55, mupirocin-resistant
# [10] = S. aureus V86, mupirocin-resistant
molecule,measurement,setting,value
"CCCCCCCCCC1CC(O)=C(C(=O)CCCC)C(=O)O1 (stereo not shown) [Ex. 8, 4-hydroxy-6-nonyl-3-pentanoyl-5,6-dihydro-2H-pyran-2-one]",MIC,"[1]; LMG15975, S. aureus (G+), Table 2, read-out: MIC (μg/ml) S. aureus",< 0.6 µg/mL
same,MIC,[1]; [6],≤ 1.9 µM
same,MIC,[1]; [7],≤ 0.6 µg/mL
same,MIC,[1]; [8],≤ 0.6 µg/mL
same,MIC,Bacillus cereus,≤ 1 µg/mL
same,MIC,M. frederiksbergense,≤ 4 µg/mL
same,MIC,Mycobacterium smegmatis,≤ 4 µg/mL
same,MIC,A. baumannii,8 to 16 µg/mL
same,MIC,[2]; [9],≤0.1 µg/mL
same,MIC,[2]; [10],≤0.1 µg/mL
same,MIC,"[2]; Staphylococcus aureus, S. aureus V321, mupirocin-resistant, read-out: MIC",≤ 0.1 µg/mL
same,CC50 at 48 h,"[3]; HepG2, 48 hours, Table 1",36 µM
"CCCCCCCCCC1CC(O)=C(C(=O)CC2CCCCC2)C(=O)O1 (stereo not shown) [Ex. 14, 3-(2-cyclohexylacetyl)-4-hydroxy-6-nonyl-5,6-dihydro-2H-pyran-2-one]",MIC,"S. aureus; ATCC29213, S. aureus ATCC29213, QC strain, Table 5",2 µg/mL
same,MIC,"S. aureus; S. aureus 7280, Methicillin-resistant",2 µg/mL
same,MIC,"S. aureus; S. aureus MO17, Methicillin-sensitive, Table 5",1 µg/mL
same,MIC,"S. aureus; S. aureus PICI, Methicillin-resistant, Table 5",1 µg/mL
same,MIC,Serratia marescens,> 64 µg/mL
same,MIC,"[1]; LMG15975, S. aureus LMG 15975 (SLU), Methicillin-resistant, Table 5, read-out: MIC (μg/mL)",0.25 µg/mL
same,MIC,[1]; [6],≤ 0.3 µM
same,MIC,[1]; [7],0.25 µg/mL
same,MIC,[1]; [8],≤ 0.1 µg/mL
same,MIC,Bacillus cereus,≤ 1 µg/mL
same,MIC,E. faecium,1 µg/mL
same,MIC,Proteus mirabilis; EN0445 P. mirabilis ST19 G−,>64 µg/mL
same,MIC,"Proteus mirabilis; EN0457 Proteus mirabilis G− PKL 3695, read-out: MIC",> 64 µg/mL
same,MIC,A. Pittii/nosocomialis,> 64 µg/mL
same,MIC,[2]; [9],≤0.1 µg/mL
same,MIC,[2]; [10],≤0.1 µg/mL
same,MIC,"[2]; S. aureus V321, mupirocin-resistant",≤0.1 µg/mL
same,MIC,"[2]; Staphylococcus aureus, S. aureus V308, mupirocin-resistant, read-out: MIC",≤ 0.1 µg/mL
same,MIC,"S. epidermidis [4]; S. epidermis RO7, Methicillin-sensitive, Table 5",0.5 µg/mL
same,MIC,"S. epidermidis [4]; S. epidermis Staph 1, Methicillin-resistant",0.5 µg/mL
same,MIC,"S. epidermidis [4]; S. epidermis TA12, Methicillin-resistant, Table 5",0.5 µg/mL
same,MIC,S. typhimurium,> 64 µg/mL
same,MIC,"P. aeruginosa; EN004 P. aeruginosa WT, ENABLE Primary MIC panel",> 64 µg/mL
same,MIC,"P. aeruginosa; EN005 P. aeruginosa Efflux mut, ENABLE Primary MIC panel",> 64 µg/mL
same,MIC,"P. aeruginosa; EN0014 P. aeruginosa, ENABLE L2C MIC panel",> 64 µg/mL
same,MIC,"P. aeruginosa; EN0015 P. aeruginosa Efflux mut, ENABLE L2C MIC panel",> 64 µg/mL
same,MIC,P. aeruginosa; EN0422 P. aeruginosa G−,> 64 µg/mL
same,MIC,P. aeruginosa; EN0459 P. aeruginosa G− PKL 3699,> 64 µg/mL
same,MIC,P. aeruginosa; EN0460 P. aeruginosa G− PKL 3704,> 64 µg/mL
same,MIC,"K. pneumoniae; EN006 K. pneumoniae WT, ENABLE Primary MIC panel",> 64 µg/mL
same,MIC,"K. pneumoniae; EN0010 K. pneumoniae, ENABLE L2C MIC panel (isogenic efflux pairs)",> 64 µg/mL
same,MIC,"K. pneumoniae; EN0011 K. pneumoniae Efflux mut, ENABLE L2C MIC panel",> 64 µg/mL
same,MIC,Citrobacter sp.,> 64 µg/mL
same,MIC,"E. faecalis; E. faecalis 14, Vancomycin-resistant",1 µg/mL
same,MIC,"E. faecalis; E. faecalis 24, Vancomycin-sensitive, Table 5",1 µg/mL
same,MIC,S. epidermidis [5],1 µg/mL
same,MIC,Enterobacter aerogenes,> 64 µg/mL
same,CC50 at 48 h,"[3]; HepG2, 48 hours, Table 1",14 µM
same,CC50 at 48 h,"[3]; HepG2, Table 5",14 µM
same,MIC,Micrococcus luteus,0.5 µg/mL
same,MIC,"E. coli; EN001 E. coli WT, ENABLE Primary MIC panel",> 64 µg/mL
same,MIC,"E. coli; EN002 E. coli DtolC, ENABLE Primary MIC panel",> 64 µg/mL
same,MIC,"E. coli; EN003 E. coli D22 (lps mut), ENABLE Primary MIC panel",> 64 µg/mL
same,MIC,"E. coli; EN0012 E. coli, ENABLE L2C MIC panel",> 64 µg/mL
same,MIC,"E. coli; EN0013 E. coli Del-tolC, ENABLE L2C MIC panel",16 µg/mL
same,MIC,E. coli; EN0458 E. coli B G− PKL 3698,> 64 µg/mL
same,MIC,K. oxytoca,> 64 µg/mL
same,MIC,"A. baumanii; Acinetobacter baumannii, EN007 A. baumanii WT, ENABLE Primary MIC panel, read-out: MIC",> 64 µg/mL
same,MIC,"A. baumanii; EN0016 A. baumanii, ENABLE L2C MIC panel",>64 µg/mL
same,MIC,"A. baumanii; EN0017 A. baumanii Efflux mut, ENABLE L2C MIC panel",>64 µg/mL
lachnellulic acid,activity against the Dutch Elm disease fungus,Dutch Elm disease fungus,active
podoblastin A,activity against the fungus Pyricularia oryziae,Pyricularia oryziae,active
